22 compounds from US9365522B2, “Pyrazole amide derivative” (AMGEN INC., priority 2015, dated 2016) can be followed below.

The structures appear in SMILES notation.

The target of this assay is T1, ligand binding domain of human ROR gamma (Homo sapiens, UniProt P51449).
T1 construct: NM_001001523; expressed in transfected cells; host or cells: HEK293T
T1 sequence (P51449 247-497 isoform P51449-2): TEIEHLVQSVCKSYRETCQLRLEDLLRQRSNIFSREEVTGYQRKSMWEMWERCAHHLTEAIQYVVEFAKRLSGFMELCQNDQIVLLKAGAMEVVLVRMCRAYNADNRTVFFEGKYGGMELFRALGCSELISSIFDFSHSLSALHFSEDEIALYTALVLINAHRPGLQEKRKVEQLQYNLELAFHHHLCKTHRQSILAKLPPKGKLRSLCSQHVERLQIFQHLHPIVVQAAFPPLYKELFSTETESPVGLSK
In words: ROR gamma reporter gene assay (GAL4-RORγ LBD luciferase, Dual-Glo). Conditions: HEK293T cells transfected with pM-ROR gamma, 8 concentrations 3.5 nM to 10.5 μM, 24 h incubation; read-out: result (pIC50, inhibition of RORγ transcriptional activity) (converted). Type of assay: cell-based. In a few lines: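 Transient GAL4-RORγ LBD (aa 247-497) / 5×UAS-luc / pRL-CMV cotransfection in HEK293T, charcoal-stripped 10% FBS. 8-pt dose, 3.5 nM–10.5 μM, 0.075% DMSO final. 24 h, 37 °C, 5% CO2. Dual-Glo firefly/renilla readout; pIC50 from curve fit.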
In general terms: A reporter such as luciferase makes a cellular process visible.
For the compound `CC(C)(C)CN(CC(=O)c1c(Cl)cccc1Cl)C(=O)c1cnn([C@H]2CC[C@](C)(C(=O)O)CC2)c1C(F)(F)F` [Example 284, trans-4-(4-((2-(2,6-dichlorophenyl)-2-oxoethyl)-(2,2-dimethylpropyl)carbamoyl)-5-(trifluoromethyl)pyrazol-1-yl)-1-methylcyclohexane-1-carboxylic acid], the IC50 was 11200 pM.

Take `CCC(C)(C)CN(CC(=O)c1c(Cl)cncc1Cl)C(=O)c1cnn([C@H]2CC[C@](C)(C(=O)O)CC2)c1C(F)(F)F` [Example 286, trans-4-(4-((2-(3,5-dichioropyridin-4-yl)-2-oxoethyl)-(2,2-dimethylbutyl)carbamoyl)-5-(trifluoromethyl)pyrazol-1-yl)-1-methylcyclohexane-1-carboxylic acid]: the IC50 is 9120 pM.

With `CCC(CC)N(CC(=O)c1c(Cl)cncc1Cl)C(=O)c1cnn([C@H]2CC[C@](C)(C(=O)O)CC2)c1C(F)(F)F` [Example 287, trans-4-(4-((2-(3,5-dichloropyridin-4-yl)-2-oxoethyl)-pentan-3-ylcarbamoyl)-5-(trifluoromethyl)pyrazol-1-yl)-1-methylcyclohexane-1-carboxylic acid], the IC50 is 1.2e+06 pM.

Take `CCC(C)(C)CN(CC(=O)c1c(Cl)cncc1Cl)C(=O)c1cnn(C23CCC(C(=O)O)(CC2)CC3)c1C(F)(F)F` [Example 288, 4-(4-((2-(3,5-dichloropyridin-4-yl)-2-oxoethyl)-(2,2-dimethylbutyl)carbamoyl)-5-(trifluoromethyl)pyrazol-1-yl)bicyclo[2.2.2]octane-1-carboxylic acid]: the IC50 is 11700 pM.

As for `C[C@]1(C(=O)O)CC[C@H](n2ncc(C(=O)N(CC(=O)c3c(Cl)cc(Cl)cc3Cl)C3CCC4(CC3)COC4)c2C(F)(F)F)CC1` [Example 289, trans-1-methyl-4-(4-(2-oxaspiro[3.5]nonan-7-yl-(2-oxo-2-(2,4,6-trichlorophenyl)ethyl)carbamoyl)-5-(trifluoromethyl)pyrazol-1-yl)cyclohexane-1-carboxylic acid], the IC50 was 93300 pM.

As to `CC1(C)CCC(N(CC(=O)c2c(Cl)cc(F)cc2Cl)C(=O)c2cnn([C@H]3C[C@H](C(=O)O)C3)c2C(F)(F)F)CC1` [Example 290, trans-3-(4-((2-(2,6-dichloro-4-fluorophenyl)-2-oxoethyl)-(4,4-dimethylcyclohexyl)carbamoyl)-5-(trifluoromethyl)pyrazol-1-yl)cyclobutane-1-carboxylic acid], the IC50 was 191000 pM.

Turning to `CC1(C)CCC(N(CC(=O)c2c(Cl)cc(F)cc2Cl)C(=O)c2cnn([C@H]3C[C@@H](C(=O)O)C3)c2C(F)(F)F)CC1` [Example 291, cis-3-(4-((2-(2,6-dichloro-4-fluorophenyl)-2-oxoethyl)-(4,4-dimethylcyclohexyl)carbamoyl)-5-(trifluoromethyl)pyrazol-1-yl)cyclobutane-1-carboxylic acid], the IC50 is 1.02e+06 pM.

With `CC(C)(C)OCCN(CC(=O)c1c(Cl)cc(F)cc1Cl)C(=O)c1cnn([C@H]2CC[C@](C)(C(=O)O)CC2)c1C(F)(F)F` [Example 292, trans-4-(4-((2-(2,6-dichloro-4-fluorophenyl)-2-oxoethyl)-(2-((2-methylpropan-2-yl)oxy)ethyl)carbamoyl)-5-(trifluoromethyl)pyrazol-1-yl)-1-methylcyclohexane-1-carboxylic acid], the IC50 is 47900 pM.

Regarding `CC(C)(C)OCCN(CC(=O)c1c(Cl)cc(Cl)cc1Cl)C(=O)c1cnn([C@H]2CC[C@](C)(C(=O)O)CC2)c1C(F)(F)F` [Example 293, trans-1-methyl-4-(4-(2-((2-methylpropan-2-yl)oxy)ethyl-(2-oxo-2-(2,4,6-trichlorophenyl)ethyl)carbamoyl)-5-(trifluoromethyl)pyrazol-1-yl)cyclohexane-1-carboxylic acid], the IC50 is 33100 pM.

For `CC(C)(C)CN(CC(=O)c1c(F)cncc1Cl)C(=O)c1cnn([C@H]2CC[C@](C)(C(=O)O)CC2)c1C(F)(F)F` [Example 294, trans-4-(4-((2-(3-chloro-5-fluoropyridin-4-yl)-2-oxoethyl)-(2,2-dimethylpropyl)carbamoyl)-5-(trifluoromethyl)pyrazol-1-yl)-1-methylcyclohexane-1-carboxylic acid], the IC50 is 49000 pM.

Turning to `CN1CCC(N(CC(=O)c2c(Cl)cc(F)cc2Cl)C(=O)c2cnn([C@H]3CC[C@](C)(C(=O)O)CC3)c2C(F)(F)F)CC1` [Example 295, trans-4-(4-((2-(2,6-dichloro-4-fluorophenyl)-2-oxoethyl)-(1-methylpiperidin-4-yl)carbamoyl)-5-(trifluoromethyl)pyrazol-1-yl)-1-methylcyclohexane-1-carboxylic acid], the IC50 is 5.62e+06 pM.

As to `CC(C)N1CCC(N(CC(=O)c2c(Cl)cc(F)cc2Cl)C(=O)c2cnn([C@H]3CC[C@](C)(C(=O)O)CC3)c2C(F)(F)F)CC1` [Example 296, trans-4-(4-((2-(2,6-dichloro-4-fluorophenyl)-2-oxoethyl)-(1-propan-2-ylpiperidin-4-yl)carbamoyl)-5-(trifluoromethyl)pyrazol-1-yl)-1-methylcyclohexane-1-carboxylic acid], the IC50 was over 1.05e+07 pM.

`CC(C)(C)CN(CC(=O)c1c(F)cccc1Cl)C(=O)c1cnn([C@H]2CC[C@](C)(C(=O)O)CC2)c1C(F)(F)F` [Example 297, trans-4-(4-((2-(2-chloro-6-fluorophenyl)-2-oxoethyl)-(2,2-dimethylpropyl)carbamoyl)-5-(trifluoromethyl)pyrazol-1-yl)-1-methylcyclohexane-1-carboxylic acid]: the IC50 is 66100 pM.

Turning to `O=C(CN(CC1(F)CCCC1)C(=O)c1cnn(C23CCC(C(=O)O)(CC2)CC3)c1C(F)(F)F)c1c(Cl)cc(Cl)cc1Cl` [Example 298, 4-(4-((1-fluorocyclopentyl)methyl-(2-oxo-2-(2,4,6-trichlorophenyl)ethyl)carbamoyl)-5-(trifluoromethyl)pyrazol-1-yl)bicyclo[2.2.2]octane-1-carboxylic acid], the IC50 is 12900 pM.

With `O=C(CN(CC1(F)CCCC1)C(=O)c1cnn(C23CCC(C(=O)O)(CC2)CC3)c1C(F)(F)F)c1c(Cl)cncc1Cl` [Example 299, 4-(4-((2-(3,5-dichloropyridin-4-yl)-2-oxoethyl)-((1-fluorocyclopentyl)methyl)carbamoyl)-5-(trifluoromethyl)pyrazol-1-yl)bicyclo[2.2.2]octane-1-carboxylic acid], the IC50 is 20900 pM.

With `Cc1cc(Cl)c(C(=O)CN(CC2(F)CCCC2)C(=O)c2cnn(C34CCC(C(=O)O)(CC3)CC4)c2C(F)(F)F)c(Cl)c1` [Example 300, 4-(4-((2-(2,6-dichloro-4-methyIphenyl)-2-oxoethyl)-((1-fluorocyclopentyl)methyl)carbamoyl)-5-(trifluoromethyl)pyrazol-1-yl)bicyclo[2.2.2]octane-1-carboxylic acid], the IC50 was 24000 pM.

Take `CC1(C)CCC(N(CC(=O)c2c(Cl)cc(F)cc2Cl)C(=O)c2cnn([C@H]3CC[C@@](C)(C(=O)O)CC3)c2C(F)(F)F)CC1` [Example 301, cis-4-(4-((2-(2,6-dichloro-4-fluorophenyl)-2-oxoethyl)-(4,4-dimethylcyclohexyl)carbamoyl)-5-(trifluoromethyl)pyrazol-1-yl)-1-methylcyclohexane-1-carboxylic acid]: the IC50 is 186000 pM.

On to `CCC(C)(C)CN(CC(=O)c1c(Cl)cc(F)cc1Cl)C(=O)c1cnn([C@H]2CC[C@](C)(C(=O)O)CC2)c1C(F)(F)F` [Example 302, trans-4-(4-((2-(2,6-dichloro-4-fluorophenyl)-2-oxoethyl)-(2,2-dimethylbutyl)carbamoyl)-5-(trifluoromethyl)pyrazol-1-yl)-1-methylcyclohexane-1-carboxylic acid], for which the IC50 is 14800 pM.

For `CN1C2CCC1CC(N(CC(=O)c1c(Cl)cc(F)cc1Cl)C(=O)c1cnn([C@H]3CC[C@](C)(C(=O)O)CC3)c1C(F)(F)F)C2` (stereo partly drawn) [Example 303, trans-4-(4-((2-(2,6-dichloro-4-fluorophenyl)-2-oxoethyl)-(8-methyl-8-azabicyclo[3.2.1]octan-3-yl)carbamoyl)-5-(trifluoromethyl)pyrazol-1-yl)-1-methylcyclohexane-1-carboxylic acid], the IC50 is over 3.47e+06 pM.

On to `C[C@]1(C(=O)O)CC[C@H](n2ncc(C(=O)N(CC(=O)c3c(Cl)cc(F)cc3Cl)C3CC4CCC(C3)N4)c2C(F)(F)F)CC1` (stereo partly drawn) [Example 304, trans-4-(4-(8-azabicyclo [3.2.1]octan-3-yl-(2-[2,6-dichloro-4-fluorophenyl)-2-oxoethyl)carbamoyl)-5-(trifluoromethyl)pyrazol-1-yl)-1-methylcyclohexane-1-carboxylic acid], for which the IC50 is over 1.05e+07 pM.

With `CC(C)N1C2CCC1CC(N(CC(=O)c1c(Cl)cc(F)cc1Cl)C(=O)c1cnn([C@H]3CC[C@](C)(C(=O)O)CC3)c1C(F)(F)F)C2` (stereo partly drawn) [Example 305, trans-4-(4-((2-(2,6-dichloro-4-fluorophenyl)-2-oxoethyl)-(8-propan-2-yl-8-azabicyclo[3.2.1]octan-3-yl)carbamoyl)-5-(trifluoromethyl)pyrazol-1-yl)-1-methylcyclohexane-1-carboxylic acid], the IC50 was over 1.05e+07 pM.

In the case of `CCC(C)(C)CN(CC(=O)c1c(Cl)cc(Cl)cc1Cl)C(=O)c1cnn([C@H]2CC[C@](C)(C(=O)O)CC2)c1C(F)(F)F` [Example 306, trans-4-(4-(2,2-dimethylbutyl-(2-oxo-2-(2,4,6-trichlorophenyl)ethyl)carbamoyl)-5-(trifluoromethyl)pyrazol-1-yl)-1-methylcyclohexane-1-carboxylic acid], the IC50 was 8320 pM.
